Laboratory results: PubChem BioAssay (NCI)
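Exposure lasted 48 hours, with cells grown in 96-well plates and compounds tested at five concentrations. TGI: concentration producing complete growth inhibition.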

Columns and labels:
Experiment in all cases: NCI tumour cell line growth inhibition, 48 h
[1] = test system: HOP-18 NSCLC
[2] = test system: M19-MEL melanoma
[3] = test system: SN12K1 renal
[4] = test system: P388/ADR leukemia
[5] = test system: DLD-1 colon
[6] = test system: SNB-78 CNS
[7] = test system: DMS 114 small cell lung
[8] = test system: P388 leukemia
[9] = test system: LXFL 529 NSCLC

| Structure (SMILES) | TGI [1] | TGI [2] | TGI [3] | TGI [4] | TGI [5] | TGI [6] | TGI [7] | TGI [8] | TGI [9] |
| --- | --- | --- | --- | --- | --- | --- | --- | --- | --- |
| O=C1C(CO)=C[C@H](O)[C@H]2O[C@@H]12 | > 625 µM | 292 µM | 278 µM | 225 µM | 227 µM | 480 µM | 296 µM | 195 µM |  |
| c1cc2c3c(c1)c1cc4c(cc1c[n+]3CC2)OCO4 | 88.4 µM | 5.21 µM | 12.2 µM | > 225 µM | 121 µM | 47.1 µM | 9.27 µM | 4.22 µM |  |
| O=C(NN1C(=O)C(Cl)C1c1cccc([N+](=O)[O-])c1)c1ccccc1O (stereo not given) |  | > 100 µM |  |  |  |  | > 100 µM |  | > 100 µM |
| COc1cc(-c2ccc(N=Nc3ccc4c(S(=O)(=O)O)cc(S(=O)(=O)O)c(N)c4c3O)c(OC)c2)ccc1N=Nc1ccc2c(S(=O)(=O)O)cc(S(=O)(=O)O)c(N)c2c1O | 98.1 µM | > 100 µM | > 100 µM | > 100 µM | > 100 µM | > 100 µM | > 100 µM | > 100 µM |  |
| c1ccc2c(c1)NCc1cc3ccccc3nc1O2 | > 100 µM | > 100 µM | > 100 µM | > 100 µM | > 100 µM | > 100 µM | > 100 µM | > 100 µM |  |
